# Test results published in PMC10933344, “A lncRNA Dleu2-encoded peptide relieves autoimmunity by facilitating Smad3-mediated Treg induction” (EMBO Reports, 2024).
# Where no end group is shown, it is not given here.
# Columns and labels:
# Jurkat cells = experiment: Uptake of FAM-labeled peptide, flow cytometry; format: cell-based, human; settings: 6-FAM conjugate, 10 μM, n = 3
# Method: (§1) Figure EV1 Dleu2-17aa enters CD4^+ T cells. (A) Representative histogram of Dleu2-17aa (10 μM) uptake in Jurkat and EL4 cell lines (n = 3). (B) Flow cytometry plots showing FAM-Dleu2-17aa^+ cells gated on CD4^+ T cells after treatment with increasing concentrations of FAM-Dleu2-17aa for 72 h (n = 3). (C) Histograms showing fluorescence intensity of FAM-Dleu2-17aa in CD4^+ T cells after treatment with increasing concentrations of FAM-Dleu2-17aa for 72 h. Gray filled: untreated control (n = 3). (D) Immunofluorescence imaging of FAM-Dleu2-17aa (10 μM) penetration by CD4^+ T cells isolated from WT mouse spleen (n = 3). Scale bars: 20 μm. Data information: n indicates biological replicate.
# (§2) The mouse T cell line EL4 (TIB-39) cells and fibroblast cell line NIH/3T3 (CRL-1658) cells were cultured in high-glucose DMEM (Thermo Fisher Scientific) supplemented with 10% fetal bovine serum (FBS; Gibco). The human T cell line Jurkat (TIB-152) cells were cultured in RPMI 1640 medium (Thermo Fisher Scientific) supplemented with 10% FBS. All lines were maintained at 37 °C in a humidified 5% CO2 atmosphere.
# EL4 cells = experiment: Uptake of FAM-labeled peptide, flow cytometry; format: cell-based, mouse; settings: 6-FAM conjugate, 10 μM, n = 3
# Method: as §1, §2
# CD4+ T cells [1] = experiment: Uptake of FAM-labeled peptide, flow cytometry; format: cell-based; settings: 6-FAM conjugate, 72 h, mouse CD4+ T cells, n = 3
# Method: as §1
# CD4+ T cells [2] = experiment: Subcellular distribution by confocal immunofluorescence microscopy; format: cell-based; settings: 6-FAM conjugate, 10 μM, 4 h, mouse CD4+ T cells, n = 3
# Method: as §1
# Mouse CD4^+ T cells and EL4 cells were seeded on glass coverslips and incubated with FAM-Dleu2-17aa (10 µM) for 4 h. Cultured cells were washed three times in PBS and fixed with 4% PFA for 10 min at RT, then incubated in Blocking Buffer (1 × PBS/5% BSA/0.3% Triton X-100) for 1 h. After being washed in PBS and air drying, the coverslips were mounted with DAPI (1:1000; Thermo Fisher Scientific). Images were acquired with Leica TCS SP8 laser scanning confocal microscope.
# spinal cord of EAE mice = experiment: Immunostaining of spinal cord sections of treated EAE mice; format: in vivo, mouse
# Description: We then analyzed the T cell subsets in the CNS of WT and KO mice after EAE induction to clarify the inflammatory responses. […] To investigate if Dleu2-17aa affects CNS pathology in EAE, we performed immunostaining of spinal cord sections on EAE mice treated with Dleu2-17aa or scrPEP. […] Neuronal staining was also unaffected by Dleu2-17aa, indicating no significant alterations in CNS inflammation.
# DAPI Dleu2-17aa CD4 DAPI Dleu2-17aa Iba1 DAPI Dleu2-17aa GFAP DAPI Dleu2-17aa NeuN
# Appendix Fig S7: Effects of Dleu2-17aa on CNS pathology.
# Representative immunofluorescence images showing Dleu2-17aa and CD4+ T cells (CD4),
# microglia (Iba1), astrocyte (GFAP), and neuron (NeuN) staining in spinal cords of WT and KO EAE […]
# naive CD4+ T cells = experiment: In vitro iTreg differentiation (Foxp3+ of CD4+ cells); format: cell-based, mouse; settings: 10 μM, 72 h, n = 4
# Method: C57BL/6 mice were sacrificed, and their spleens and peripheral lymph nodes were removed and gently dissociated into single-cell suspensions. Naive T cells were isolated using the Mouse CD4 Naive T Cell Isolation Kit (BioLegend, Stem Cell, or Thermo Fisher Scientific). Flow cytometry verified that the purity (CD4^+CD25^−CD62L^hi) of the enriched subpopulation was typically higher than 95%. All T cells were cultured using RPMI-1640 medium (Gibco) supplemented with 10% heat-inactivated fetal bovine serum (Gibco), 2 mM L-glutamine (Gibco), 10,000 units/mL of penicillin, 10,000 µg/mL of streptomycin, and 25 µg/mL of Gibco Amphotericin B (Thermo Fisher Scientific), 10 mM HEPES (Gibco), 1 mM Sodium pyruvate, MEM Non-Essential Amino Acids (Life Technologies) and 55 μM β-mercaptoethanol (Gibco). 0.1 million naive CD4^+ T cells were activated with plate-coated anti-CD3 (2.5 μg/ml; BD Biosciences) and soluble anti-CD28 (2 μg/ml; BD Biosciences) antibodies. The Th1 cell differentiation condition included recombinant murine (rm)IL-12 (10 ng/ml, PeproTech) and anti-IL-4 (10 μg/ml, BioLegend). The Th17 cell differentiation condition included rmIL-6 (10 ng/ml, PeproTech), rmTGF-β1 (5 ng/ml, PeproTech), rmIL-23 (10 ng/ml, PeproTech), anti-IL-4 (5 μg/ml, BioLegend) and anti-IFN-γ (10 μg/ml, eBioscience). The inducible T regulatory cell (iTreg) differentiation condition included rmTGF-β (5 ng/ml, PeproTech). 0.1 million naive CD8^+ T cells were activated with plate-coated anti-CD3 (10 μg/ml; BD Biosciences) and plate-coated anti-CD28 (10 μg/ml; BD Biosciences) antibodies. The Tc17 cell differentiation condition included rmIL-6 (10 ng/ml, PeproTech), rmTGF-β1 (2 ng/ml, PeproTech), rmIL-23 (25 ng/ml, PeproTech), rmIL1-β (5 ng/ml, PeproTech), and anti-IFN-γ (10 μg/ml, eBioscience). The Tc1 cell differentiation condition included rmIL-2 (5 ng/ml, PeproTech) and rm IL-12 (1 ng/ml, PeproTech). Different concentrations of Dleu2-17aa and scrPEP (Genscript) were added to the T cell culture from the beginning unless specified. Cells were cultured in U-bottom 96-well plates for 72 h and detected by flow cytometry.
# For in vitro mouse T cell differentiation, after 72 h of induction, cells were activated for 4–6 h at 37 °C with the Cell Stimulation Cocktail (Thermo Fisher Scientific) if intracellular cytokine staining is needed, surface markers were stained in FACS buffer (PBS containing 2% FBS) for 30 min at 4 °C protected from light. Cells were then fixed and permeabilized with the Foxp3 Staining Buffer Set (eBioscience) or BD Cytofix/Cytoperm (BD Biosciences) and were stained with fluorescent antibodies. After washing, stained cells were assayed with an LSRFortessa (BD) flow cytometer, and data were analyzed with FlowJo software. Single-cell suspensions from EAE mouse spleen or CNS (day 16 post-immunization) were derived through mechanical separation and passage through a 70-μm filter (Fisherbrand) and analyzed using similar steps. For flow cytometry, antibodies against CD4 (clone GK1.5, 1:200), CD62L (clone MEL-14, 1:200), CD44 (clone IM7, 1:200), CD25 (clone PC61.5, 1:200), IL-17A (clone eBio17B7, 1:200), IFN-γ (clone XMG1.2, 1:200), FoxP3 (clone FJK-16s, 1:200), CD184 (clone 2B11/CXCR4, 1:100), CD152 (clone BNI3 1:100) and CD357 (clone DTA-1 1:100) were from eBioscience, CD3 (clone 145-2C11, 1:200) was from Biolegend and TGFBI (1:100) were from proteintech. For Dleu2-17aa expression detection, C57BL/6 mice were sacrificed, and their spleens were removed and gently dissociated into single-cell suspensions. An Fc blocker was used to reduce potential nonspecific antibody staining caused by IgG. Surface staining was performed using monoclonal antibodies against CD45 (clone 30-F11), CD3 (clone 145-2C11), CD19 (clone SJ25C1), CD11c (clone N418), MHCII (clone M5/114.15.2), F4/80 (clone BM8) all at a dilution of 1:200 (from Biolengend) followed by fixation and permeabilization of the nuclear membrane BD Cytofix/Cytoperm (BD Biosciences). […]
Sequence,penetrating ability (Jurkat cells),penetrating ability (EL4 cells),penetration of the peptide (CD4+ T cells [1]; 0-50 μM),concentration of maximal penetration (CD4+ T cells [1]) [µM],subcellular distribution (CD4+ T cells [2]),colocalization with astrocytes (spinal cord of EAE mice),colocalization with microglia (spinal cord of EAE mice),colocalization with neurons (spinal cord of EAE mice),presence in CD4+ T cells of spinal cord (spinal cord of EAE mice),significance of CD4+Foxp3+ (%) vs PBS (naive CD4+ T cells; two-tailed Student's t-test),effect on mouse iTreg cell differentiation (naive CD4+ T cells; vs PBS)
MLGRRARRRGRGRRRPA [Dleu2-17aa],capacity to penetrate into different types of T cells,capacity to penetrate into different types of T cells,dose-dependent penetration,25 to 50,predominantly localized in the nucleus,limited colocalization,some colocalization,minimal colocalization,expressed in all the CD4^+ T cell,,
"MGRGALRRGRGRARRRGPRRGGTPG [DLEU2-25aa, 25 amino acid micropeptide of human DLEU2 transcripts]",,,,,,,,,,✱✱ (**P<0.01),exhibited similar features in promoting mouse iTreg cell differentiation
